System: patients with acute non-cardioembolic ischemic stroke
Conditions: 50 mg daily
Protocol: All participants were required to undergo at least two MRIs that met study requirements. In addition to the baseline MRI (obtained after the index stroke either before randomization or within 72 h after randomization), participants underwent a final study MRI at 26 weeks or as soon as possible after early termination of assigned study treatment. Patients were followed up for at least 26 weeks and up to 52 weeks and assessed for the occurrence of safety, efficacy, and adverse events at 2, 4, 8, 13, 20, 26, 32, 39, 46, and 52 (end of treatment) weeks after randomization, and again 2 weeks after the end of treatment visit. Adherence to assigned therapy was assessed by means of interview and pill count at each clinic visit.
The primary safety outcome was the composite of major bleeding and clinically relevant non-major bleeding, according to the criteria of the International Society on Thrombosis and Haemostasis (ISTH). […] Additional prespecified exploratory safety outcomes included haemorrhagic transformation within the qualifying stroke detected by baseline MRI performed post-study drug or on follow-up study MRIs based on the Heidelberg classification of severity (haemorrhagic infarct 1 or 2 or parenchymal haematoma 1 or 2). […]

For `CC[C@@H](C(=O)Nc1ccc(C(N)=O)c(F)c1)n1cc(OC)c(-c2cc(Cl)ccc2-n2cc(C(F)(F)F)nn2)cc1=O` [Compound A, (4S)-2^4-chloro-4-ethyl-7^3-fluoro-3^5-methoxy-3^2,5-dioxo-14-(trifluoromethyl)-3^2H-6-aza-3(4,1)-pyridina-1(1)-[1,2,3]triazola-2(1,2),7(1)-dibenzenaheptaphane-7^4-carboxamide], the “Primary intracerebral haemorrhages, % participants” value was 1% and the “Primary intracerebral haemorrhages, n participants” value was “three”.

— patent US20240316019A1 (Bayer Aktiengesellschaft, priority 2023, published 2024)
